# Legend:
# Experiment in all cases: KINOMEscan competition binding, single concentration
# Conditions in all cases: read-out: % Ctrl @ 100nM
# ABL1-nonphosphorylated [1] = molecular target: T1, ABL1-nonphosphorylated (Homo sapiens, UniProt P00519, T315I)
# T1 construct: KINOMEscan (Ambit) panel kinase, nonphosphorylated form
# From the text: (§1) KINOMEscan competition binding, single concentration on ABL1-nonphosphorylated
# ABL1-nonphosphorylated [2] = molecular target: T2, ABL1-nonphosphorylated (Homo sapiens, UniProt P00519)
# T2 construct: KINOMEscan (Ambit) panel kinase, nonphosphorylated form
# From the text: as §1
# FLT3 = molecular target: T3, FLT3 (Homo sapiens, UniProt P36888)
# T3 construct: KINOMEscan (Ambit) panel kinase
# T3 sequence (P36888 27-993): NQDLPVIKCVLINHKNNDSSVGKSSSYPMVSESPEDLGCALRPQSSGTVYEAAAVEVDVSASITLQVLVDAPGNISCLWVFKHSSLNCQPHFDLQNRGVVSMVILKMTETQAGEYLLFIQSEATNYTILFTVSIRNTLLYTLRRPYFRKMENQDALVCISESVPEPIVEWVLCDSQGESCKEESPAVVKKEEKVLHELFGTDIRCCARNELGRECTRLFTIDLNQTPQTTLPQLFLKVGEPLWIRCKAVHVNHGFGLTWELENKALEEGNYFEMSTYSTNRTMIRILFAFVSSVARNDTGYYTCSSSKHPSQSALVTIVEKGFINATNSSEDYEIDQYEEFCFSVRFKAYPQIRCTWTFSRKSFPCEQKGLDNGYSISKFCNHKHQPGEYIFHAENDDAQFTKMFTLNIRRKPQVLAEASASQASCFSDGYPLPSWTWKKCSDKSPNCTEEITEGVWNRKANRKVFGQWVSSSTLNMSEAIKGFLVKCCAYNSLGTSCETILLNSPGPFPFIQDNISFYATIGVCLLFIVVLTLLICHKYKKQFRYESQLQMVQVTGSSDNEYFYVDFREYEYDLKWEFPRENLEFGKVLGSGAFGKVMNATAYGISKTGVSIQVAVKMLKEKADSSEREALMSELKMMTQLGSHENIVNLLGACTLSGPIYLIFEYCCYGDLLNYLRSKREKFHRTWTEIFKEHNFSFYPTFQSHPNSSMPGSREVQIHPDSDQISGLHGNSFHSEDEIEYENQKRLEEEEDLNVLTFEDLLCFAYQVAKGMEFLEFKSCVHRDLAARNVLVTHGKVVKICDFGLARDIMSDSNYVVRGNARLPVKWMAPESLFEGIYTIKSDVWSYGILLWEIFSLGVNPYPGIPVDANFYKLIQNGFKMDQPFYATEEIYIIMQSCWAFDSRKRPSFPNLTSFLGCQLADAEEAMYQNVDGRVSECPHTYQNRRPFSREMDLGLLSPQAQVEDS
# From the text: KINOMEscan competition binding, single concentration on FLT3
# KIT = molecular target: T4, KIT (Homo sapiens, UniProt P10721)
# T4 construct: KINOMEscan (Ambit) panel kinase
# From the text: KINOMEscan competition binding, single concentration on KIT
# TIE2 = molecular target: T5, TIE2 (Homo sapiens, UniProt Q02763)
# T5 construct: gene TEK; KINOMEscan (Ambit) panel kinase
# From the text: KINOMEscan competition binding, single concentration on TIE2
# LYN = molecular target: T6, LYN (Homo sapiens, UniProt P07948)
# T6 construct: KINOMEscan (Ambit) panel kinase
# From the text: KINOMEscan competition binding, single concentration on LYN
# PDGFRα = molecular target: T7, PDGFRα (Homo sapiens, UniProt P16234)
# T7 construct: gene PDGFRA; KINOMEscan (Ambit) panel kinase
# From the text: KINOMEscan competition binding, single concentration on PDGFRα
# PDGFRβ = molecular target: T8, PDGFRβ (Homo sapiens, UniProt P09619)
# T8 construct: gene PDGFRB; KINOMEscan (Ambit) panel kinase
# From the text: KINOMEscan competition binding, single concentration on PDGFRβ
# SRC = molecular target: T9, SRC (Homo sapiens, UniProt P12931)
# T9 construct: KINOMEscan (Ambit) panel kinase
# From the text: KINOMEscan competition binding, single concentration on SRC
# LCK = molecular target: T10, LCK (Homo sapiens, UniProt P06239)
# T10 construct: KINOMEscan (Ambit) panel kinase
# From the text: KINOMEscan competition binding, single concentration on LCK
# CDK2 = molecular target: T11, CDK2 (Homo sapiens, UniProt P24941)
# T11 construct: KINOMEscan (Ambit) panel kinase; no cyclin named
# From the text: KINOMEscan competition binding, single concentration on CDK2
# BLK = molecular target: T12, BLK (Homo sapiens, UniProt P51451)
# T12 construct: KINOMEscan (Ambit) panel kinase
# From the text: KINOMEscan competition binding, single concentration on BLK
# HCK = molecular target: T13, HCK (Homo sapiens, UniProt P08631)
# T13 construct: KINOMEscan (Ambit) panel kinase
# From the text: KINOMEscan competition binding, single concentration on HCK
# PLK1 = molecular target: T14, PLK1 (Homo sapiens, UniProt P53350)
# T14 construct: KINOMEscan (Ambit) panel kinase
# From the text: KINOMEscan competition binding, single concentration on PLK1
# T4 sequence (P10721 26-976): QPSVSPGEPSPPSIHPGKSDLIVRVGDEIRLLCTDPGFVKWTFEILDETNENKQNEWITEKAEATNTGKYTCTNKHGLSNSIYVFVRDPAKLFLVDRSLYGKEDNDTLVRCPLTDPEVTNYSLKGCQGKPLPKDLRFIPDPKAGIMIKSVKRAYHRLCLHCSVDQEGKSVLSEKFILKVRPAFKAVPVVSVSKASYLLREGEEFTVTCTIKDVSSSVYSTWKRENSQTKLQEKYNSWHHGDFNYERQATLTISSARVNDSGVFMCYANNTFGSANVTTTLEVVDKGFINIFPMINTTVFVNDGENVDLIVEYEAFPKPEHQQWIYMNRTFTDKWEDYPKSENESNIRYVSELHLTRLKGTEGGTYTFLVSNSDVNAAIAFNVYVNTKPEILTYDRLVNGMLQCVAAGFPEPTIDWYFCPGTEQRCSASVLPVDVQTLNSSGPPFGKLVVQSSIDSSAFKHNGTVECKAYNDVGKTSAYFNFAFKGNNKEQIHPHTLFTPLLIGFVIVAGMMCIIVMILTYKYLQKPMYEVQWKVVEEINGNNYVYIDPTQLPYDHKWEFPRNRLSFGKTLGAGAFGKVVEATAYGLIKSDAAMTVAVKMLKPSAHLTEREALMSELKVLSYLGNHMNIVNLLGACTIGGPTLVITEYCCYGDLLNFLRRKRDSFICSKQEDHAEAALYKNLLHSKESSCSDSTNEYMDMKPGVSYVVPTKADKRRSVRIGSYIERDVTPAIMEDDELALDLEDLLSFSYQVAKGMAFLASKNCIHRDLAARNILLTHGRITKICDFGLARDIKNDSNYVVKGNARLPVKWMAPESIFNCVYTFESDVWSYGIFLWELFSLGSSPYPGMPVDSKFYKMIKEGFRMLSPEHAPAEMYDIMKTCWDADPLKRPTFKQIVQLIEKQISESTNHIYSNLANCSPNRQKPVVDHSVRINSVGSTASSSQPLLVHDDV
# T5 sequence (Q02763 23-1124): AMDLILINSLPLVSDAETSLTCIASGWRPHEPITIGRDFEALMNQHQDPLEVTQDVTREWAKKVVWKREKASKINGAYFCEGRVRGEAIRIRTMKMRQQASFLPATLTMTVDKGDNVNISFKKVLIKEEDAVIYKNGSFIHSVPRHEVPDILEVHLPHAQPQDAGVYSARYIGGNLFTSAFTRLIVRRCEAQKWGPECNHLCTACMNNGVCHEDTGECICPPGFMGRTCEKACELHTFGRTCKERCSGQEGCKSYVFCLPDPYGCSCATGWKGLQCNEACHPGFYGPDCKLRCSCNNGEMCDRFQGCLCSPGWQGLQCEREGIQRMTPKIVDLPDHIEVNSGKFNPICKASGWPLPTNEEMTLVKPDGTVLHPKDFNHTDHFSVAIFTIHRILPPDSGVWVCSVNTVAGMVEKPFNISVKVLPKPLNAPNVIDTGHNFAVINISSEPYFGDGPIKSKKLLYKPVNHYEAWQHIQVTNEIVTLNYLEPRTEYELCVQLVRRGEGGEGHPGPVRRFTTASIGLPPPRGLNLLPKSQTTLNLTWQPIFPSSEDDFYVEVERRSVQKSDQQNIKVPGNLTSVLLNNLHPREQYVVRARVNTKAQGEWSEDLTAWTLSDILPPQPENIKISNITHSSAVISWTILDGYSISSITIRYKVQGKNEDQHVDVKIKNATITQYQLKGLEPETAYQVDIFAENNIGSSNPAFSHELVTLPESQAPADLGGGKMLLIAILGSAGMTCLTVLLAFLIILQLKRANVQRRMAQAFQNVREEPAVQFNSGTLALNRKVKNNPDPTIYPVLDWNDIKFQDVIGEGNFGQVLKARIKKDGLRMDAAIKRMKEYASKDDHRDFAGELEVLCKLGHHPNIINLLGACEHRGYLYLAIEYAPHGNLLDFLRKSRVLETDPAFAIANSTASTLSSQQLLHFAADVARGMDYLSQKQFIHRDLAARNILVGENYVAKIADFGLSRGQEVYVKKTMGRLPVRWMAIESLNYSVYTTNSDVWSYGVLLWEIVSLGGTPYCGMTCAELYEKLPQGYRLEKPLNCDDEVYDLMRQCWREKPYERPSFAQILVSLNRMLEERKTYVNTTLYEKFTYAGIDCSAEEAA
# T7 sequence (P16234 24-1089): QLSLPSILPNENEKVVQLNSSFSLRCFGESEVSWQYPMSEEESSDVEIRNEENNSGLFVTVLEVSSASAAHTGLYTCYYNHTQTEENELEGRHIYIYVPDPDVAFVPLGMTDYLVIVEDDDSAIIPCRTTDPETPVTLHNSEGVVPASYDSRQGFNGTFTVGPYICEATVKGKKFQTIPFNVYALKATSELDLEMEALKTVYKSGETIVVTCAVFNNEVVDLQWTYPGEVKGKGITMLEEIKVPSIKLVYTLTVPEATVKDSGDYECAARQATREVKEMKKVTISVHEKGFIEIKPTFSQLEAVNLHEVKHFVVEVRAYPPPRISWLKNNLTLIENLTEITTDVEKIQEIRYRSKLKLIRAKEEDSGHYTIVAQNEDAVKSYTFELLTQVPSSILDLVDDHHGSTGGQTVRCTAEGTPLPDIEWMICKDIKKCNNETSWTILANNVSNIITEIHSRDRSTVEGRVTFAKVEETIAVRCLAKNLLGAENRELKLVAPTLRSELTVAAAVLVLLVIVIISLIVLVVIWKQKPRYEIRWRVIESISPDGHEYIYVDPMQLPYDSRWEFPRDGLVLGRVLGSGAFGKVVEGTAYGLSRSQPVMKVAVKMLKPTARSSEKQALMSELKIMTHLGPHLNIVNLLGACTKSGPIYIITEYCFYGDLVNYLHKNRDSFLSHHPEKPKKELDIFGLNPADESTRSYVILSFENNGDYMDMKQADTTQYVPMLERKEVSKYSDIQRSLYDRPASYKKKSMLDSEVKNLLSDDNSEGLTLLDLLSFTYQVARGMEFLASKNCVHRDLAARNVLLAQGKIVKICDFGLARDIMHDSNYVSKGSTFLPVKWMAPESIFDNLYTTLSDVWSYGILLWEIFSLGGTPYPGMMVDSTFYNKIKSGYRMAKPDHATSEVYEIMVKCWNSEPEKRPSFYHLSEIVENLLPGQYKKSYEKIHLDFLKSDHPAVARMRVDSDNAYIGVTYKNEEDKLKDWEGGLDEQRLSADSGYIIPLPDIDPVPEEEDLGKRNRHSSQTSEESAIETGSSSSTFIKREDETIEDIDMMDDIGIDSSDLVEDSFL
# T9 sequence (P12931 2-536): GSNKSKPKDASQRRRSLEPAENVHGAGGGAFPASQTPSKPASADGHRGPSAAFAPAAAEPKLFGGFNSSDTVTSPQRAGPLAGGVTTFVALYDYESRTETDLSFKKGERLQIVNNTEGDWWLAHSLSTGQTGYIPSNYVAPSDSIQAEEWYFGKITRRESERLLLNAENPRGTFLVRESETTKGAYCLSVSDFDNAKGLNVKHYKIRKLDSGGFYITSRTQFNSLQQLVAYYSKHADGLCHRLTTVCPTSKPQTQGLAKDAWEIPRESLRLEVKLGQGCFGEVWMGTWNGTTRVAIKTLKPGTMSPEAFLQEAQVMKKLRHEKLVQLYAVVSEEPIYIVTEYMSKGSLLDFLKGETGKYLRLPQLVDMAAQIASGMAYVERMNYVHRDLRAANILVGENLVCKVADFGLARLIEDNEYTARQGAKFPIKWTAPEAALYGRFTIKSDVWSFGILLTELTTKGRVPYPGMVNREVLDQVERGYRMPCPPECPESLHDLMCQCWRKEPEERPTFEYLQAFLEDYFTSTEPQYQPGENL
# T8 sequence (P09619 33-1106): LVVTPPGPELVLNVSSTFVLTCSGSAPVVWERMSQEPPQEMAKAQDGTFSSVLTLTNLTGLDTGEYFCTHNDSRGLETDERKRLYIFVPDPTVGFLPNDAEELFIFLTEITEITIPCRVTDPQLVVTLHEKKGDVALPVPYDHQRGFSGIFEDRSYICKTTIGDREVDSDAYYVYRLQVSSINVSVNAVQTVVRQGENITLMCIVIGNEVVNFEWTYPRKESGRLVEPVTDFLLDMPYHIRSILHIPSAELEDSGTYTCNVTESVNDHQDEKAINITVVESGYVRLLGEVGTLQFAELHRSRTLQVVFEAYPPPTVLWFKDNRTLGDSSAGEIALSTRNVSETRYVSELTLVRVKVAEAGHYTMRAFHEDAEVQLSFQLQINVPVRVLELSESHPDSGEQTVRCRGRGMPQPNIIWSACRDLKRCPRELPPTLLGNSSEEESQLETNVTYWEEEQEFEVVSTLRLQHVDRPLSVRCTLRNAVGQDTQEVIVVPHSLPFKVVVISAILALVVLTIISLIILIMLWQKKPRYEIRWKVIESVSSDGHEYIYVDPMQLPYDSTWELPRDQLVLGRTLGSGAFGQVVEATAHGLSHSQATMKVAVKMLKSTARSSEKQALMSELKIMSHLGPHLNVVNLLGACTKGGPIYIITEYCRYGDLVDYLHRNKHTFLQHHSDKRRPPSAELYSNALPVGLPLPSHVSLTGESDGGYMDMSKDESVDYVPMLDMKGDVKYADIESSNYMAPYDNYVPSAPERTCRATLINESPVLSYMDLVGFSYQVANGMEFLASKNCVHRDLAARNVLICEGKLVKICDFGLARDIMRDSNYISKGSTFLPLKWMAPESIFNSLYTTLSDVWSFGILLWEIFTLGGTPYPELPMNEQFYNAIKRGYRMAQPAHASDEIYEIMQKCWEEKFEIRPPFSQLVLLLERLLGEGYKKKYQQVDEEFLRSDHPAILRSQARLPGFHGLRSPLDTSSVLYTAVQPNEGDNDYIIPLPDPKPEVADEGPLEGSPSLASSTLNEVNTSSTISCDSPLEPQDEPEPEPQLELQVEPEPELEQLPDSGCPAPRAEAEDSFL
smiles,measurement,setting,value
Cc1ccc(C(=O)Nc2cc(-n3ccnc3)cc(C(F)(F)F)c2)cc1C#Cc1cnc(NC2CC2)nc1 [S116836],remaining binding at 0.1 µM,ABL1-nonphosphorylated [1],20%
same,remaining binding at 0.1 µM,ABL1-nonphosphorylated [2],18%
same,remaining binding at 0.1 µM,FLT3,1.8%
same,remaining binding at 0.1 µM,KIT,6.8%
same,remaining binding at 0.1 µM,TIE2,0.85%
same,remaining binding at 0.1 µM,LYN,16%
same,remaining binding at 0.1 µM,PDGFRα,26%
same,remaining binding at 0.1 µM,PDGFRβ,3.3%
same,remaining binding at 0.1 µM,SRC,33%
same,remaining binding at 0.1 µM,LCK,3.4%
same,remaining binding at 0.1 µM,CDK2,99%
same,remaining binding at 0.1 µM,BLK,10%
same,remaining binding at 0.1 µM,HCK,6.2%
same,remaining binding at 0.1 µM,PLK1,100%

# Source: publication PMC4279382, “Antitumor activity of S116836, a novel tyrosine kinase inhibitor, against imatinib-resistant FIP1L1-PDGFRα-expressing cells” (Oncotarget, 2014)
